Values quoted from earlier work as cited in paper PMC3961596 (Advances in Therapy, 2014).

System: urinary glucose excretion
Conditions: healthy subjects; cited from earlier work

SMILES	maximum amount of daily UGE after multiple dose [g/day]	maximum amount of daily UGE after single dose
CCOc1ccc(Cc2cc([C@@H]3O[C@H](CO)[C@@H](O)[C@H](O)[C@H]3O)ccc2Cl)cc1 [dapagliflozin]	50 to 55	approximately 70 g/day
Cc1ccc([C@@H]2O[C@H](CO)[C@@H](O)[C@H](O)[C@H]2O)cc1Cc1ccc(-c2ccc(F)cc2)s1 [canagliflozin]	50 to 55	approximately 70 g/day
OC[C@H]1O[C@@H](c2ccc(Cl)c(Cc3ccc(O[C@H]4CCOC4)cc3)c2)[C@H](O)[C@@H](O)[C@@H]1O [empagliflozin]	50 to 55	approximately 70 g/day
OC[C@H]1O[C@@H](c2ccc(F)c(Cc3cc4ccccc4s3)c2)[C@H](O)[C@@H](O)[C@@H]1O [ipragliflozin]	50 to 55	approximately 70 g/day
